The test system of data set [1] is airway smooth muscle isolated from guinea pigs. The experiment in a line: Relaxing action to smooth muscle of airway of guinea pigs (histamine-constricted). It is filed as cell-based. As to conditions: Cavia porcellus; guinea pig airway, constricted with 10^-4 M histamine, cumulative addition; read-out: EC50, concentration showing 50% of the maximum reaction (relaxation). The text has this: […] Action to Smooth Muscle of Airway of Guinea Pigs A guinea pig was killed by draining out the blood, the airway was isolated, and four airway pieces having a width of about 1 cm cut along the cartilage were connected by silk yarn to prepare an airway smooth muscle sample. The sample was hung with a load of about 0.5 g in a 5-mL Magnus vessel filled with a Tyrode solution and aerated with a mixed gas (95% O2 and 5% CO2). […] This was repeatedly treated with 10^-5 M of histamine and, after confirming that the constriction became constant, it was treated with 10^-4 M of histamine. After the maximum constriction reaction of the smooth muscle became constant, the test compound was added thereto starting from a low concentration cumulatively to investigate the relaxing action. […] Pat. […] Pat. No. 4,808,587 to Go et al and in U.S. Pat. No. 5,776,942 to Furukawa et al) and theophylline were used as control agents.

Data set [2] in a line: Concentration in blood of guinea pigs. It counts as in vivo. Particulars: oral, 30 mg/kg in 1% methyl cellulose, plasma, HPLC. Here is the method: Concentration in Blood of Guinea Pigs
Each test substance was orally administered at a dose of 30 mg/kg. It was suspended in 1% methyl cellulose and made into a preparation so as to make the administering dose 5 mL/kg. A group consisted of four animals and blood was collected after 30 minutes, 1 hour, 2 hours, 4 hours, 6 hours and 24 hours from the administration. (A feed was given after collection of the blood after 6 hours). Thus, each about […] (corresponding to four capillary tubes) of blood were collected with intervals using a heparintreated capillary tube and plasma was separated by a hematocrit centrifuge to prepare a plasma sample. A plasma sample of about […] was preserved at -80° C. until the measurement. Methanol ([…]) was added to […] of the plasma followed by mixing, the mixture was centrifuged at 1500×g for ten minutes at […] and the separated supernatant liquid was filtered through a membrane filter of […]. The filtrate was used as a sample for an HPLC, analyzed under the analyzing condition that the column was 100 mm×4.6 mm (inner diameter) of TSK-gel Super ODS, the flow rate was 1.0 mL/minute, the column temperature was 40° C., an injection amount was […], detection was done by UV of 225 nm and the mobile phase was water-acetonitrile (75:25 in terms of % by volume) and the maximum concentration in blood (Cmax), time required for achieving the maximum concentration in blood (Tmax), half life in blood (T1/2) and area under a curve of concentration in blood vs. time (AUC 0-lim) were determined. RS-25344 (Cell Signalling, 7(5), 527 (1995); Mol. Pharmacol., 48, 616 (1995)) and CR-77059 (J. Med. Chem., 34, 624 (1991); J. Pharmacol. Exp. Ther., 272, 3,1313 (1995)) were used as control drugs.

Consider `COc1ccc(Cn2c(=O)c3ccc(N)nc3n(-c3ccccc3)c2=O)cc1` [Compound 28, 7-amino-1,2,3,4-tetrahydro-3-(4-methoxybenzyl)-1-phenylpyrido[2,3-d]pyrimidine-2,4-dione], for which the EC50 in data set [1] was determined as 45 nM. The same measure, in the same setting: to `Nc1ccc2c(=O)n(Cc3ccncc3)c(=O)n(-c3ccccc3)c2n1` [Compound 17, 7-amino-1,2,3,4-tetrahydro-1-phenyl-3-(4-picolyl) pyrido[2,3-d]pyrimidine-2,4-dione] belongs 19 nM. In the case of `Nc1ccc2c(=O)n(Cc3ccc(F)cc3)c(=O)n(-c3ccccc3)c2n1` [Compound 29, 7-amino-3-(4-fluorobenzyl)-1,2,3,4-tetrahydro-1-phenylpyrido[2,3-d]pyrimidine-2,4-dione], the EC50 in data set [1] was found to be 76 nM. On the same count and under the same terms, to `Nc1ccc2c(=O)n(Cc3cccs3)c(=O)n(-c3ccccc3)c2n1` [Compound 37, 7-amino-1,2,3,4-tetrahydro-1-phenyl-3-(2-thienylmethyl)pyrido [2,3-d]pyrimidine-2,4-dione] belongs 21 nM; to `CCn1c(=O)c2ccc(N)nc2n(CC)c1=O` [Control Compound A, 7-Amino-1,3-diethyl-1,2,3,4-tetrahydropyrido-[2,3-d]pyrimidine-2,4-dione, reference compound], 1010 nM. Still for that read-out and setting: to `Cn1c(=O)c2[nH]cnc2n(C)c1=O` [theophylline, reference compound] belongs 51000 nM; to `Nc1ccc2c(=O)n(Cc3ccsc3)c(=O)n(-c3ccccc3)c2n1` [Compound 39, 7-amino-1,2,3,4-tetrahydro-1-phenyl-3-(3-thienylmethyl)pyrido [2,3-d]pyrimidine-2,4-dione], 27 nM; to `Nc1ccc2c(=O)n(Cc3ccco3)c(=O)n(-c3ccccc3)c2n1` [Compound 38, 7-amino-3-(2-furfuryl)-1,2,3,4-tetrahydro-1-phenylpyrido [2,3-d]pyrimidine-2,4-dione], 40 nM. With `COC(=O)c1cccc(-n2c(=O)n(Cc3ccccc3)c(=O)c3cccnc32)c1` [CP-77059, reference compound], in data set [2], the “Concentration in blood (in words, Table 6)” value is listed as “less than identification limit”. As for `COc1cc(OC)cc(-n2c(=O)n(Cc3ccccc3)c(=O)c3ccc(N)nc32)c1` [Compound 8, 7-amino-3-benzyl-1-(3,5-dimethoxyphenyl)-1,2,3,4-tetrahydropyrido[2,3-d]pyrimidine-2,4-dione], the EC50 in data set [1] amounted to 320 nM.

On to `O=c1c2cccnc2n(-c2cccc([N+](=O)[O-])c2)c(=O)n1Cc1ccncc1` [RS-25344, reference compound], for which the “Concentration in blood (in words, Table 6)” value in data set [2] is “less than identification limit”.

These data come from patent US6242452A, “7-aminopyrido[2,3-D]pyrimidine derivatives” (Nippon Zoki Pharmaceutical Co., Ltd., priority 1998, dated 2001).
